Tests used:
KKAy mice [1] = assay: Rearing experiment of KKAy mice: blood-glucose level; assay type: in vivo; conditions: Experiment 5, FIG. 11; 0.035 mass % in AIN-93G feed; pair feeding; day 28
Experimental: (§1) KKAy mice at 3 weeks of age were purchased from CLEA Japan, Inc. as diabetes onset mode mice, and experimentally reared after preliminary rearing for 7 days. Herein, the conditions of rearing the mice were as follows. […]
(§2) AIN-93G was used for base experimental feed. […]
Note, the Yuzu seed extract used in Experiment 1 was prepared by heat-drying the Yuzu seeds at 100° C. for 720 min, subsequently grinding the dried Yuzu seeds so that the particle size (i.e., diameter) became about 1 mm or less, and performing extraction at an ambient temperature for 10 min using 10-fold volume of 100% ethanol to the ground Yuzu seeds.
In each of a control group (i.e., administered with AIN-93G alone including no other materials), a Yuzu seed extract (1% mass %) added group, a pioglitazone (0.03 mass %) added group, 10 mice were preliminarily reared for 7 days, and subsequently reared with the experimental feed totally for 28 days.
After initiating the rearing experiment, blood was collected through a tail vain at the time from 9 am to 11 am at a day after the predetermined days passed. Then, the collected blood was analyzed by blood-glucose analyzers (HORIBA, Ltd. Antsence III and Bayer DCA2000) to measure a blood-glucose level and an HbA1c level. The measured blood-glucose and HbA1c levels were processed to calculate the mean value of each group. […]

KKAy mice [2] = assay: Rearing experiment of KKAy mice: HbA1c level; assay type: in vivo; conditions: Experiment 5, FIG. 12; 0.035 mass % in AIN-93G feed; pair feeding
Experimental: as §1, §2
Note, the Yuzu seed extract used in Experiment 1 was prepared by heat-drying the Yuzu seeds at 100° C. for 720 min, subsequently grinding the dried Yuzu seeds so that the particle size (i.e., diameter) became about 1 mm or less, and performing extraction at an ambient temperature for 10 min using 10-fold volume of 100% ethanol to the ground Yuzu seeds. […]
After initiating the rearing experiment, blood was collected through a tail vain at the time from 9 am to 11 am at a day after the predetermined days passed. Then, the collected blood was analyzed by blood-glucose analyzers (HORIBA, Ltd. Antsence III and Bayer DCA2000) to measure a blood-glucose level and an HbA1c level. The measured blood-glucose and HbA1c levels were processed to calculate the mean value of each group.
Note, all the HbA1c levels thus measured and calculated in the experiment are represented by the JDS values. […]

CC1(C)OC(=O)C=C[C@]2(C)[C@H]3CC[C@@]4(C)[C@H](c5ccoc5)OC(=O)[C@H]5O[C@]54[C@]3(C)C(=O)C[C@@H]12 [obacunone, Obacunone]
blood-glucose level lower than that of the control group (difference) (KKAy mice [1]): about 50 mg/dl | HbA1c levels compared to control group (KKAy mice [2]): lower than those of the control group

From patent US11253567B2, “Citrus seed extract-containing composition, food, drug, and method for producing citrus seed extract-containing composition” (Kikkoman Corporation, priority 2014, dated 2022)
